For one data set, the system named is CGRP receptors. As to the kind of experiment: CGRP receptor antagonism with CGRP8-37 in conscious dogs experiencing heart failure. The format is in vivo, mongrel dogs. Particulars: FIG. 6. How it is done:
The diagnostic tests included Ees, DEDV, PRSW, tau, Pes, end diastolic pressure (Ped), end diastolic volume (Ved), and Ea.
To test the relation between the inotropic action of HNO/NO^− and calcitonin gene-related peptide (CGRP) signaling, CGRP receptors in mongrel dogs were antagonized using the selective antagonist CGRP8-37 (400 μg in 30 milliliters (ml) of saline bolus, then 2.6 μg/kg/min for 15 min). Plasma CGRP levels measurements were performed by sampling the blood of the dogs. Blood samples (2.5 ml) were withdrawn from arterial, venous, and coronary sinus catheters. After sampling, catheters were flushed with heparanized saline. Samples were centrifuged at 1600 times gravity (g) for 20 minutes at 4° Celsius (C). Plasma was then separated and stored at −20° C. until analysis. Plasma (0.5 ml) was used to extract CGRP by addition of 0.8 ml of ethanol. The mixture was centrifuged at 1600 g for 20 minutes. After removing the supernatant, the extracted samples were air dried at room temperature overnight and then stored at 4° C. Immediately prior to assay, dried samples were reconstituted with assay buffer following manufacturer's instructions (Peninsula Labs) and assayed for CGRP by radioimmunoassay (RIA). CGRP antiserum, code RAS 6012, was used. The dynamic assay range was 1-128 picograms (pg) per 300 microliters (μL) of sample. […]

For data set [1], the system named is normal conscious dogs under beta-antagonist therapy with propranolol. The format is in vivo. Particulars: propranolol 2 milligrams/kg in bolus; normal subject.
The test system of data set [2] is conscious dogs experiencing congestive heart failure (CHF). The format is in vivo, mongrel dogs. As to conditions: for cardiac load as measured by Edv (preload) and Ea (afterload): FIG. 1.
Data set [3] can be described thus: Long-term infusion (3-4 hours of perfusion). It is filed as in vivo. How it is done: In particular embodiments the HNO/NO^− donating compound is administered in the form of a pharmaceutical composition. A pharmaceutical composition comprising an effective amount of the HNO/NO^− donating compound as an active ingredient could be easily prepared by standard procedures well known in the art, with pharmaceutically acceptable non-toxic solvents and/or sterile carriers, if necessary. Such preparations are administered orally or in injectable form, or directly to myocardial tissue. In other embodiments the HNO/NO^− donor is administered without a pharmaceutical carrier. In particular embodiments the HNO/NO^− donor is administered by a short-term infusion, such as for 5 to 20 minutes. In other embodiments the HNO/NO^− donor is administered by a long-term infusion, such as from 3-4 hours.

A further data set concerns reperfused myocardium. Particulars: anesthetized rabbits; given 5 minutes prior to reperfusion (after ischemia); Ma et al. 1999; cited from earlier work.
For another data set, the system named is rat renal tissue. Particulars: given during ischemia and 5 minutes before reperfusion; Takahira et al. 2001; cited from earlier work.

“Also recorded” adds a separate entry of the source. Ends that are not written are not given here.

As to “calcitonin gene-related peptide8-37 (VTHRLAGLLSRSGGVVKNNFVPTNVGSKAF; ends and bridges not checked; UniProt P06881 90-119, looked up, fragment) [CGRP8-37]”, in the data set on CGRP receptors (CGRP8-37 alone), the “inotropic effect as measured by Ees” value is listed as “modest negative inotropic effect”. Also, the “effect on the positive inotropic effect of Angeli's salt (Ees)” value in the data set with CGRP receptors (CGRP8-37 combined with Angeli's salt versus Angeli's salt alone) is listed as “effectively prevented the HNO/NO^−-mediated, positive inotropic effect of Angeli's salt”.
Consider `CC(C)NCC(O)COc1cccc2ccccc12` (stereo not drawn) [propranolol], for which the myocardial performance result in data set [1] was “reduction in myocardial performance”.
Turning to `CC(C)N[N+]([O-])=N[O-].[Na+]` [IPA/NO, isopropylamine (IPA)/NO(Na(CH3)2CHNHN(O)NO)], the “cardiac load as measured by Edv (preload) and Ea (afterload)” value in data set [2] is “reduced the cardiac load”. Besides, the “cardiac contractility compared with Angeli's salt (Ees)” value in data set [2] (IPA/NO doses one-half to one-quarter those of Angeli's salt, nearly equivalent blood pressure decrease) was “superior to those caused by the HNO/NO^− donating compound Angeli's salt; also recorded: exerted a stronger positive inotropic effect; also recorded: greater increase in cardiac contractility than Angeli's salt”.
As for `[Na+].[Na+].[O-][N+]([O-])=NO` [Angeli's salt, sodium trioxodinitrate], the “cardiac load as measured by Edv (preload) and Ea (afterload)” value in data set [2] is “lowered left ventricular preload; also recorded: reduced the cardiac load”. The “persistence of beneficial effects during long-term infusion” value in data set [3] is “retains its beneficial effects during 3-4 hours of perfusion”. Also, the myocardial ischemia/reperfusion injury entry with reperfused myocardium is on record as “increased myocardial ischemia/reperfusion injury”. Moreover, the “neutrophil infiltration into renal tissue” value in the data set on rat renal tissue is given as “contributed to neutrophil infiltration into the tissue”.

The values are drawn from patent publication US7863262B2, “Nitroxyl progenitors in the treatment of heart failure” (Johns Hopkins University, priority 2002, dated 2011).
